Measured values published in patent publication US20040029823A1, “Antisense oligonucleotide compositions and methods for the modulation of JNK proteins” (priority 1997, published 2004).
Strand notation (5' to 3'): a small letter for the sugar, then the base; units joined by * are phosphorothioate-linked, units joined directly phosphodiester-linked; [ ] holds rarer units or linkages, { } end groups; capitals alone tell only the bases. e = 2'-O-(2-methoxyethyl) (MOE); [5mC] = 5-methylcytosine; d = 2'-deoxy (DNA)

Tests used:
JNK3 mRNA = assay: Northern assay of JNK3 mRNA levels in SH-SY5Y cells; format: cell-based, human; conditions: 200 nM oligonucleotide
Protocol: Northern Assays: The mRNA expression of each JNK protein was determined by using a nucleic acid probe specifically hybridizable thereto. Nucleic acid probes specific for JNK1, JNK2 and JNK3 are described in Examples 3, 4 and 5, respectively. The probes were radiolabelled by means well known in the art (see, e.g., Short Protocols in Molecular Biology, 2nd Ed., Ausubel et al., Eds., John Wiley & Sons, New York, 1992, pages 3-11 to 2-3-44 and 4-17 to 4-18; Ruth, Chapter 6 In: Methods in Molecular Biology, Vol. 26: Protocols for Oligonucleotide Conjugates, Agrawal, ed., Humana Press Inc., Totowa, N.J., 1994, pages 167-185; and Chapter 10 In: Molecular Cloning: A Laboratory Manual, 2nd Ed., Sambrook et al., Eds., pages 10.1-10.70). The blots were stripped and reprobed with a ^32P-labeled glyceraldehyde 3-phosphate dehydrogenase (G3PDH) probe (Clontech Laboratories, Inc., Palo Alto, Calif.) in order to confirm equal loading of RNA and to allow the levels of JNK transcripts to be normalized with regard to the G3PDH signals.
B. JNK3-specific probes: In initial screenings of a set of oligonucleotides derived from the JNK3 sequence for biological activity, a cDNA clone of JNK3 (Derijard et al., Cell, […], 76, 1025) was radiolabeled and used as a JNK3-specific probe in Northern blots. Alternatively, however, one or more of the oligonucleotides of Table 14 is detectably labeled and used as a JNK3-specific probe.
E. Activities of JNK3 oligonucleotides: The JNK3-specific phosphorothioate, 2′-methoxyethoxy “gapmer” oligonucleotides (Table 14) were screened for their ability to affect JNK3 mRNA levels in SH-SY5Y cells (Biedler et al., Cancer Res., 1973, 33, 2643). SH-SY5Y cells express a variety of mitogen-activated protein kinases (MAPKs; see, e.g., Cheng et al., J. Biol. Chem., 1998, 273, 14560). Cells were grown in DMEM essentially as previously described (e.g., Singleton et al., J. Biol. Chem., 1996, 271, 31791; Jalava et al., Cancer Res., 1990, 50, 3422) and treated with oligonucleotides at a concentration of 200 nM as described in Example 2. Control cultures were treated with an aliquot of LIPOFECTIN™ that contained no oligonucleotide.

rat JNK1 mRNA = assay: Northern assay of rat JNK1 (p54?) mRNA in A10 aortic smooth muscle cells; format: cell-based; conditions: for % EXPRESSION JNK1: A10 cells; for inhibition of rat JNK1 mRNA levels: A10 cells (Table 20)
Protocol: (§1) In order to study the role of JNK proteins in animal models, oligonucleotides targeted to the genes encoding JNK1, JNK2 and JNK3 of Rattus norvegicus were prepared. These oligonucleotides are 2′-methoxyethoxy, phosphodiester/2′-hydroxyl, phosphorothioate/2′-methoxyethoxy, phosphodiester “gapmers” in which every cytosine residue is 5-methylcytosine (m5c). These antisense compounds were synthesized according to the methods of the disclosure. Certain of these oligonucleotides are additionally specifically hybridizable to JNK genes from other species as indicated herein. The oligonucleotides described in this Example were tested for their ability to modulate rat JNK mRNA levels essentially according to the methods described in the preceding Examples, with the exceptions that the cell line used was rat A10 aortic smooth muscle cells (ATCC No. ATCC CRL-1476) and the probes used were specific for rat JNK1, JNK2 or JNK3 (see infra). A10 cells were grown and treated with oligonucleotides essentially as described by (Cioffi et al. Mol. Pharmacol., 1997, 51, 383).
(§2) These antisense compounds were tested for their ability to modulate levels of p54? (JNK1) and p54a (JNK2) mRNA in A10 cells via Northern assays. Due to the high degree of sequence identity between the human and rat genes, radiolabeled human JNK1 (Example 3) and JNK2 (Example 4) cDNAs functioned as specific probes for the rat homologs.

rat JNK2 mRNA = assay: Northern assay of rat JNK2 (p54a) mRNA in A10 aortic smooth muscle cells; format: cell-based; design: inhibition of rat JNK2 mRNA levels / % INHIBITION: concentration or dose not given beside the values
Protocol: as §1, §2
These antisense compounds were tested for their ability to modulate levels of p54a (JNK2) mRNA in A10 cells using the radiolabeled human JNK2 cDNA as a probe as described supra. Oligonucleotides showing levels of inhibition from ≧ about 60% to about 100% of rat JNK2 mRNA levels include ISIS Nos. 18254, 18255, 18257, 18258, 18259, 18260 and 18265 (SEQ ID NOS: 125, 126, 128, 129, 130, 131 and 136, respectively). These oligonucleotides are preferred embodiments of the invention for modulating rat JNK2 expression. […] These oligonucleotides are thus more preferred embodiments of the invention for modulating rat JNK2 expression. ISIS 18259 (SEQ ID NO: 130) was chosen for use in further studies (infra).

[1] = rat JNK1 mRNA, oligonucleotides targeted to rat JNK1
[2] = rat JNK2 mRNA, A10 cells, oligonucleotides targeted to rat JNK1
[3] = dose response, A10 cells, 10 nM
[4] = dose response, A10 cells, 50 nM
[5] = dose response, A10 cells, 100 nM
[6] = dose response, A10 cells, 200 nM

Substance	% EXPRESSION (JNK3 mRNA)	% EXPRESSION JNK1 (rat JNK1 mRNA; [1])	% EXPRESSION JNK2 (rat JNK2 mRNA; [2])	other results
16698 (antisense AATCACTTGACATAAGTTGG; sugars from the 5' end e6 d8 e6, all phosphorothioate, methylation of C not given here) [compound 16698]	63%			% INHIBITION (JNK3 mRNA): 37%
16706 (antisense TCACCTGCAACAACCCAGGG; sugars from the 5' end e6 d8 e6, all phosphorothioate, methylation of C not given here) [compound 16706]	45%			
16694 (antisense TCACATCCAATGTTGGTTCA; sugars from the 5' end e6 d8 e6, all phosphorothioate, methylation of C not given here) [compound 16694]	42%			
16699 (antisense TAAATCCCTGTGAATAATTC; sugars from the 5' end e6 d8 e6, all phosphorothioate, methylation of C not given here) [compound 16699]	61%			% INHIBITION (JNK3 mRNA): 39%
16696 (antisense GTTTGGCAATATATGACACA; sugars from the 5' end e6 d8 e6, all phosphorothioate, methylation of C not given here) [compound 16696]	55%			
21869 (DNA eGe[5mC]eTeGe[5mC]*dA*d[5mC]*d[5mC]*dT*dA*dA*dA*dG*dG*dA*eGeAe[5mC]eGeG; antisense) [compound 21869]		30%	93%	
16690 (antisense TTCAACAGTTTCTTGCATAA; sugars from the 5' end e6 d8 e6, all phosphorothioate, methylation of C not given here) [compound 16690]	60%			% INHIBITION (JNK3 mRNA): 40%
21859 (DNA e[5mC]eTe[5mC]eAeT*dG*dA*dT*dG*dG*d[5mC]*dA*dA*dG*d[5mC]*eAeAeTeTeA) [compound 21859]		5%	106%	inhibition of rat JNK1 mRNA levels (rat JNK1 mRNA): at least 90%; % EXPRESSION JNK1 (rat JNK1 mRNA; dose response, 10 nM): 74%; % EXPRESSION JNK1 (rat JNK1 mRNA; dose response, 50 nM): 25%; % EXPRESSION JNK1 (rat JNK1 mRNA; dose response, 100 nM): 11%; % EXPRESSION JNK1 (rat JNK1 mRNA; dose response, 200 nM): 8%; % EXPRESSION JNK2 (rat JNK2 mRNA; [3]): 101%; % EXPRESSION JNK2 (rat JNK2 mRNA; [4]): 98%; % EXPRESSION JNK2 (rat JNK2 mRNA; [5]): 99%; % EXPRESSION JNK2 (rat JNK2 mRNA; [6]): 101%
16709 (antisense ATCATCTCCTGAAGAACGCT; sugars from the 5' end e6 d8 e6, all phosphorothioate, methylation of C not given here) [compound 16709]	66%			% INHIBITION (JNK3 mRNA): 34%
21868 (DNA e[5mC]eAe[5mC]eTe[5mC]*d[5mC]*dT*d[5mC]*dT*dA*dT*dT*dG*dT*dG*eTeGe[5mC]eTe[5mC]; antisense) [compound 21868]		15%	112%	
16702 (antisense TGTTCTCTTTCATCCAACTG; sugars from the 5' end e6 d8 e6, all phosphorothioate, methylation of C not given here) [compound 16702]	39%			
16708 (antisense CGCTGGGTTTCGCAGGCAGG; sugars from the 5' end e6 d8 e6, all phosphorothioate, methylation of C not given here) [compound 16708]	68%			% INHIBITION (JNK3 mRNA): 32%
16704 (antisense GGGTCTGGTCGGTGGACATG; sugars from the 5' end e6 d8 e6, all phosphorothioate, methylation of C not given here) [compound 16704]	36%			
16691 (antisense CTCATCTATAGGAAACGGGT; sugars from the 5' end e6 d8 e6, all phosphorothioate, methylation of C not given here) [compound 16691]	66%			% INHIBITION (JNK3 mRNA): 34%
16697 (antisense CTGTCAAGGACAGCATCATA; sugars from the 5' end e6 d8 e6, all phosphorothioate, methylation of C not given here) [compound 16697]	54%			
21870 (DNA e[5mC]e[5mC]eAeGeA*dG*dT*d[5mC]*dG*dG*dA*dT*d[5mC]*dT*dG*eTeGeGeAe[5mC]; antisense) [compound 21870]		11%	87%	
21860 (DNA eTeGeTeTeG*dT*d[5mC]*dA*d[5mC]*dG*dT*dT*dT*dA*d[5mC]*eTeTe[5mC]eTeG; antisense) [compound 21860]		8%	98%	inhibition of rat JNK1 mRNA levels (rat JNK1 mRNA): at least 90%
21862 (DNA e[5mC]eTeAeGeG*dG*dA*dT*dT*dT*d[5mC]*dT*dG*dT*dG*eGeTeGeTeG; antisense) [compound 21862]		6%	133%	inhibition of rat JNK1 mRNA levels (rat JNK1 mRNA): at least 90%
21866 (DNA eTeGeAeAeT*dT*d[5mC]*dA*dG*dG*dA*d[5mC]*dA*dA*dG*eGeTeGeTeT; antisense) [compound 21866]		8%	98%	inhibition of rat JNK1 mRNA levels (rat JNK1 mRNA): at least 90%
21861 (DNA e[5mC]eGeGeTeA*dG*dG*d[5mC]*dT*d[5mC]*dG*d[5mC]*dT*dT*dA*eGe[5mC]eAeTeG; antisense) [compound 21861]		6%	13%	inhibition of rat JNK1 mRNA levels (rat JNK1 mRNA): at least 90%; capacity to modulate both JNK1 and JNK2 (Pan JNK) (rat JNK2 mRNA; A10 cells, rat JNK1 and JNK2 mRNA): demonstrated a capacity to modulate both JNK1 and JNK2
21865 (DNA e[5mC]e[5mC]eAeTeT*dT*d[5mC]*dT*d[5mC]*d[5mC]*d[5mC]*dA*dT*dA*dA*eTeGe[5mC]eAe[5mC]; antisense) [compound 21865]		5%	50%	inhibition of rat JNK1 mRNA levels (rat JNK1 mRNA): at least 90%
18259 (antisense eGe[5mC]eTe[5mC]eA*dG*dT*dG*dG*dA*d[5mC]*dA*dT*dG*dG*eAeTeGeAeG) [compound 18259]				% EXPRESSION JNK1 (rat JNK1 mRNA; dose response, 10 nM): 95%; % EXPRESSION JNK1 (rat JNK1 mRNA; dose response, 50 nM): 101%; % EXPRESSION JNK1 (rat JNK1 mRNA; dose response, 100 nM): 94%; % EXPRESSION JNK1 (rat JNK1 mRNA; dose response, 200 nM): 89%; % EXPRESSION JNK2 (rat JNK2 mRNA; [3]): 81%; % EXPRESSION JNK2 (rat JNK2 mRNA; [4]): 35%; % EXPRESSION JNK2 (rat JNK2 mRNA; [5]): 15%; % EXPRESSION JNK2 (rat JNK2 mRNA; [6]): 5%; % INHIBITION (rat JNK2 mRNA; rat JNK2 (p54a) mRNA in A10 cells): 85%; % EXPRESSION (rat JNK2 mRNA; rat JNK2 (p54a) mRNA in A10 cells, relative to LIPOFECTIN-only control): 15%
21863 (DNA e[5mC]eAeGe[5mC]eA*dG*dA*dG*dT*dG*dA*dA*dG*dG*dT*eGe[5mC]eTeTeG; antisense) [compound 21863]		24%	107%	
